In one experiment the target is Cdk9 (Schizosaccharomyces pombe, UniProt Q96WV9, T120G). Description: radiometric kinase assay with [γ-32P]-ATP on GST-Spt5. The class given is biochemical.
The target in another experiment is Mcs6 (Schizosaccharomyces pombe, UniProt Q12126, L87G). Description: radiometric kinase assay with [γ-32P]-ATP on GST-Rpb1-CTD. The class given is biochemical.

What is called IC50 is the midpoint of a concentration-inhibition curve. A higher IC50 goes with a need for much substance.

Chain of Cdk9 (O74880 whole entry): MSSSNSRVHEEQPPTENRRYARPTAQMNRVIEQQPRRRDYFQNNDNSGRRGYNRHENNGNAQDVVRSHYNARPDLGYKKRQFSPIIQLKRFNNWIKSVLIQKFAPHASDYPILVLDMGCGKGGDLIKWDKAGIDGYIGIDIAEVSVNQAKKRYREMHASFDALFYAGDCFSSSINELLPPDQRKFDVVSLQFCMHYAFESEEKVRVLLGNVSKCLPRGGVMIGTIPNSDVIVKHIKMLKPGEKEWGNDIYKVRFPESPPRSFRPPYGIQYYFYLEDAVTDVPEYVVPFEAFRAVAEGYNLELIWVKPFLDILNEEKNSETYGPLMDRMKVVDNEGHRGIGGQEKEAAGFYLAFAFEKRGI
Chain of Cdk9 (O74627 whole entry, further chain): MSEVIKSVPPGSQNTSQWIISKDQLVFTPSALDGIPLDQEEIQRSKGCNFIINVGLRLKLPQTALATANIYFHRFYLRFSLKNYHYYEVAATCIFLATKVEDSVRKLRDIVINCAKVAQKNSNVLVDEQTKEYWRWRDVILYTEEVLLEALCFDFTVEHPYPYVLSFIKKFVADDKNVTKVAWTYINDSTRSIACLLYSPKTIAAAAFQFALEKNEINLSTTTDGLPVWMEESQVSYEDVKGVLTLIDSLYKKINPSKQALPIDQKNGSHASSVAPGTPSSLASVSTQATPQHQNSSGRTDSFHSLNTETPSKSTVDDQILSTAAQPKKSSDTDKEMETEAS
Chain of Cdk9 (Q96WV9 whole entry, stated change not applied): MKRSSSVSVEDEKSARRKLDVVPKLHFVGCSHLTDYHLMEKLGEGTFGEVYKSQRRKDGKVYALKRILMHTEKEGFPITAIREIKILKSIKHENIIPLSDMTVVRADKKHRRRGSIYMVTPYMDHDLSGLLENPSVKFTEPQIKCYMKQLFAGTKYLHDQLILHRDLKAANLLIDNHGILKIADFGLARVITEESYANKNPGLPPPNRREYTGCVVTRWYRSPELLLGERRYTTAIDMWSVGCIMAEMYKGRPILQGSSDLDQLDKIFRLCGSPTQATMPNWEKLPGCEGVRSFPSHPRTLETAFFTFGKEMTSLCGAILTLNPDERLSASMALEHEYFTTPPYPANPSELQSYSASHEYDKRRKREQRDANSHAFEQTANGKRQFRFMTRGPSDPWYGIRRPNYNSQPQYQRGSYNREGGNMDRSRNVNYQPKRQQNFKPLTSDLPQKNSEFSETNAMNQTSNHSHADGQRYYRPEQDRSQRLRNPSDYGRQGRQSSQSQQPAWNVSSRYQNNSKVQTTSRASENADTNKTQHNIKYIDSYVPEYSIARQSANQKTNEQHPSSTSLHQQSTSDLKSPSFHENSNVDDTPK
Chain of Mcs6 (P36613 whole entry): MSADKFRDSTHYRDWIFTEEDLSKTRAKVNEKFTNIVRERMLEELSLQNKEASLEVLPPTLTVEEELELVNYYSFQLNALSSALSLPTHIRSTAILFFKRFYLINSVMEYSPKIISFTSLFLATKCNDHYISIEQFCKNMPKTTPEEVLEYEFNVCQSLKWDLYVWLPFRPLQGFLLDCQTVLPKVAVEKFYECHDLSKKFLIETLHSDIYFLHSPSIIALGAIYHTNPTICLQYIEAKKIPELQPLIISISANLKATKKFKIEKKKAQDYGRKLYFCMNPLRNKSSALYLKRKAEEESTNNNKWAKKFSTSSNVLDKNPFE
Chain of Mcs6 (Q12126 whole entry, stated change not applied): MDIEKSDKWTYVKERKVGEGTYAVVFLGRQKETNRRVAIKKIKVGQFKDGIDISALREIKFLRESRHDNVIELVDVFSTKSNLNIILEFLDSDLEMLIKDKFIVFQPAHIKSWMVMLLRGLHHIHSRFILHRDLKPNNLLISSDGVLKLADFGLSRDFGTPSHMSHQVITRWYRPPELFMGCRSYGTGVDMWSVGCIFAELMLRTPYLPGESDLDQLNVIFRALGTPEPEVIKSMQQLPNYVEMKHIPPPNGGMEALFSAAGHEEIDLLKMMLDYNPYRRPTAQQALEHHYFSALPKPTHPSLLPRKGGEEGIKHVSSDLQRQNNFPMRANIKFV
Chain of Mcs6 (O94684 whole entry, further chain): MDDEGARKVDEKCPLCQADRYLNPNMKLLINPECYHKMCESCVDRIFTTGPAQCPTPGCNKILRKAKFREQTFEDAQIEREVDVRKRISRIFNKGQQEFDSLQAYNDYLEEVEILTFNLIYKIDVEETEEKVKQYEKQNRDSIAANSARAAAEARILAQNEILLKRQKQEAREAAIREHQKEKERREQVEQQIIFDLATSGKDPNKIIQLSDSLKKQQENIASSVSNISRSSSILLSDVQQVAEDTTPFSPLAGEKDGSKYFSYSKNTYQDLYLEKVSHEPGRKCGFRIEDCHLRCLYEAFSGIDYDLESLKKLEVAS

`CC(C)(C)n1nc(Cc2cccc3ccccc23)c2c(N)ncnc21` [1-NM-PP1] had an IC50 against Cdk9 of roughly 0.5 µM.
Turning to `Cc1cccc(Cc2nn(C(C)(C)C)c3ncnc(N)c23)c1` [3-MB-PP1], the values for the 50% inhibitory concentration (IC50) against Cdk9 and at Mcs6 were roughly 0.025 µM and roughly 0.125 µM, respectively.

The values above are taken from publication PMC2693121 (Molecular cell, 2009).
